The source of these data is patent US9517265B2, “Methods for the prevention and/or treatment of memory impairment” (The Governing Council of the University of Toronto, priority 2010, dated 2016).

For data set [1] the following is noted: cited from earlier work.
Data set [2] relates to α5GABAA receptors. As to the kind of experiment: In vivo receptor occupancy of L-655,708 (literature). Conditions: 0.7 mg/kg intraperitoneal, 30 min after injection.

Broadly, the half-life is how long it takes for the measured level to halve.

With `CCOC(=O)c1ncn2c1[C@@H]1CCCN1C(=O)c1cc(OC)ccc1-2` [L-655,708], in data set [1] (rat, in vivo), the half-life was 30 min and the time of peak is given as 0.25 h. In data set [1] (subcutaneous injection), the “brain versus plasma concentrations (in words)” value was “concentrations in the brain mimic those in the plasma”. The “estimated occupancy of α5GABAA receptors in vivo” value in data set [2] is 60-70%.
